Experimental data taken from US20180077929A1, “METHODS AND SYSTEMS FOR TREATING MEDICAL DEVICES AND FLUIDS” (priority 2016, published 2018).
Several values for one entry are separate records, joined by “and”; a condition that tells them apart may be missing. Equal entries are not always repeated.

Key:
[1] = Detection of LPS after adding CaSt powder to water spiked with LPS (Kinetic Chromogenic Method, Endosafe MCS); assay type: biochemical
Description: Water and aqueous solutions (containing LPS with various sources of endotoxin) were exposed to calcium stearate [CaSt] […] 5 mL of water solution of known endotoxin concentration (generated by spiking endotoxin-free water with water solution of known endotoxin concentration) was added to the each test tube, vortexed vigorously (1 minute) using Fisher Scientific Digital Vortex Mixer, and then placed in a warm water bath (37° C.) for 1 hour. After 1 hour, the tubes were removed from warm water bath and vortexed vigorously (1 minute). Sterile syringes with needles were used to extract the solution without removing the calcium stearate. This solution was then tested for endotoxin levels. Kinetic Chromogenic Method for Endotoxin Quantitation, using Endosafe MCS Multi Cartridge System by Charles River Laboratories, Charleston S.C.
The total LPS added to test tubes was about 5 EU, with the detected LPS after the treatment was 3% to 8% of the initial concentration.
The total LPS added to test tubes was about 14400 EU, with the detected LPS after the treatment was 0.07%-0.08% of the initial concentration.
The total LPS added to test tubes was about 14400 EU, with the detected LPS after the treatment was CaSt dependent and was a function of the amount of CaSt added. CaSt addition ranged about 100 fold from 0.0027 g to 0.25 g, with the detected LPS after the treatment was ranging from 77% to 0.19% of respectively as a percent of the initial concentration. […] In summary, there are three factors that drive the stearates performance to remove/neutralize endotoxins. These three factors, not necessarily listed in order of importance, are concentration, time of exposure, and energy in solution at the micro level.

[2] = Suture testing in Ethyl Acetate containing CaSt; assay type: biochemical; conditions: contaminated suture in Ethyl Acetate w/ 5% Calcium Stearate, 10 seconds; Ethyl Acetate alone 80.4 EU, no submersion 105.6 EU
Description: An absorbable VICRYL® (Polyglactin 910) suture (Size 1, Length: 27 in) made of a copolymer made from 90% glycolide and 10% L-lactide was exposed to a solution containing LPS (endotoxin) (9 Strands of Vicryl suture were immersed in tubing with endotoxin solution (SRW, Concentration: 3980 EU/mL) for 10 minutes at a time at ambient temperature. The sutures were air dried for 20 minutes in a vented chemical hood and then placed in round bottom and dried The suture was then immersed into Ethyl Acetate (EtAc) containing CaSt, vortexed briefly for 10 seconds, dried for 20 minutes in a vented chemical hood, and extracted in endotoxin free water at ambient temperature. The suture extracted in endotoxin free water (LRW) was then tested for LPS using the Kinetic Chromogenic Method for Endotoxin Quantitation, Charles River Laboratories, Charleston S.C.

[3] = Animal study: calcium stearate alone dosed intraperitoneally (NC-2); assay type: in vivo; conditions: NC-2: 0.2 g Calcium Stearate in 5.0 mL normal saline, intraperitoneal, female rats, observed 4 days
Description: An animal study was conducted with 30 female rats with weights ranging from 250-300 g and acclimated for 5 days. All rats were dosed with intraperitoneal injections using 18 gauge needles. The rats were broken into 6 groups. A negative control (NC-1) dosed 5 rats with 5 mL of normal saline solution. […] A positive control (PC-1) dosed 5 rats with 2.5 million EU in a 5 mL saline solution. A second positive control (PC-2) was conducted dosing 5 rats with 5 million endotoxin units in a 5 mL normal saline solution. Two experimental test groups were conducted.
The negative control samples also had no toxicity.

[4] = 0.0027 g CaSt in 5 mL water, 14,400 EU spiked
[5] = 0.0108 g CaSt in 5 mL water, 14,400 EU spiked
[6] = 0.0518 g CaSt in 5 mL water, 14,400 EU spiked
[7] = 0.2502 g CaSt in 5 mL water, 14,400 EU spiked
[8] = 0.254-0.2607 g CaSt powder in 5 mL water, 14,400 EU spiked, 0.254 g CaSt powder added
[9] = 0.254-0.2607 g CaSt powder in 5 mL water, 14,400 EU spiked, 0.2607 g CaSt powder added

## Calcium Stearate
[1]; [4]
  Endotoxin Detected: 11,055 EU
  Percent of detected Endotoxin vs. initial concentration: 77% and 76.77%
[1]; [5]
  Endotoxin Detected: 2,925 EU
  Percent of detected Endotoxin vs. initial concentration: 20% and 20.31%
[1]; [6]
  Endotoxin Detected: 9.4 EU
  Percent of detected Endotoxin vs. initial concentration: 0.07%
[1]; [7]
  Endotoxin Detected: 26.7 EU
  Percent of detected Endotoxin vs. initial concentration: 0.19%
[1]; 0.252-0.272 g CaSt powder in 5 mL water, 5.208 EU spiked, 37° C. 1 hour, 0.252 g CaSt powder added
  Percent of detected Endotoxin vs. initial concentration: <2.88%
[1]; 0.252-0.272 g CaSt powder in 5 mL water, 5.208 EU spiked, 37° C. 1 hour, 0.258 g CaSt powder added
  Percent of detected Endotoxin vs. initial concentration: <8.06%
[1]; 0.252-0.272 g CaSt powder in 5 mL water, 5.208 EU spiked, 37° C. 1 hour, 0.267 g CaSt powder added
  Percent of detected Endotoxin vs. initial concentration: <3.46%
[1]; [8]
  Endotoxin Detected: 12.1 EU
  Percent of detected Endotoxin vs. initial concentration: 0.08%
[1]; [9]
  Endotoxin Detected: 10.3 EU
  Percent of detected Endotoxin vs. initial concentration: 0.07%
[2]
  Endotoxin Detected: 23.4 EU and 21.78 EU and 25.62 EU
[3]
  Results (toxicity observed): No Toxicity
